For one data set, the target named is Nitric oxide synthase 1 (Rattus norvegicus, UniProt P29476). The experiment in a line: Inhibition of recombinant rat nNOS assessed as conversion of L-arginine to citrulline after 30 mins.
Another data set addresses Nitric oxide synthase 3 (Homo sapiens, UniProt P29474). The experiment in a line: Inhibition of eNOS (unknown origin).
Data set [1] is described as follows: Selectivity ratio of IC50 for eNOS (unknown origin) to IC50 for recombinant rat nNOS.
A short description of data set [2]: Drug metabolism in human liver microsomes after 20 mins. The format is ADME. To be noted: read-out: Drug metabolism. A general note: Liver microsomes are a subcellular fraction often used to study metabolism.

Here are results for 7 compounds from ChEMBL document CHEMBL3217688, “Structure-based design, synthesis, and profiling of potent and selective neuronal nitric oxide synthase (nNOS) inhibitors with an amidinothiophene hydroxypiperidine scaffold” (Medchemcomm, 2011).

Sequence of Nitric oxide synthase 1 (P29476 whole entry): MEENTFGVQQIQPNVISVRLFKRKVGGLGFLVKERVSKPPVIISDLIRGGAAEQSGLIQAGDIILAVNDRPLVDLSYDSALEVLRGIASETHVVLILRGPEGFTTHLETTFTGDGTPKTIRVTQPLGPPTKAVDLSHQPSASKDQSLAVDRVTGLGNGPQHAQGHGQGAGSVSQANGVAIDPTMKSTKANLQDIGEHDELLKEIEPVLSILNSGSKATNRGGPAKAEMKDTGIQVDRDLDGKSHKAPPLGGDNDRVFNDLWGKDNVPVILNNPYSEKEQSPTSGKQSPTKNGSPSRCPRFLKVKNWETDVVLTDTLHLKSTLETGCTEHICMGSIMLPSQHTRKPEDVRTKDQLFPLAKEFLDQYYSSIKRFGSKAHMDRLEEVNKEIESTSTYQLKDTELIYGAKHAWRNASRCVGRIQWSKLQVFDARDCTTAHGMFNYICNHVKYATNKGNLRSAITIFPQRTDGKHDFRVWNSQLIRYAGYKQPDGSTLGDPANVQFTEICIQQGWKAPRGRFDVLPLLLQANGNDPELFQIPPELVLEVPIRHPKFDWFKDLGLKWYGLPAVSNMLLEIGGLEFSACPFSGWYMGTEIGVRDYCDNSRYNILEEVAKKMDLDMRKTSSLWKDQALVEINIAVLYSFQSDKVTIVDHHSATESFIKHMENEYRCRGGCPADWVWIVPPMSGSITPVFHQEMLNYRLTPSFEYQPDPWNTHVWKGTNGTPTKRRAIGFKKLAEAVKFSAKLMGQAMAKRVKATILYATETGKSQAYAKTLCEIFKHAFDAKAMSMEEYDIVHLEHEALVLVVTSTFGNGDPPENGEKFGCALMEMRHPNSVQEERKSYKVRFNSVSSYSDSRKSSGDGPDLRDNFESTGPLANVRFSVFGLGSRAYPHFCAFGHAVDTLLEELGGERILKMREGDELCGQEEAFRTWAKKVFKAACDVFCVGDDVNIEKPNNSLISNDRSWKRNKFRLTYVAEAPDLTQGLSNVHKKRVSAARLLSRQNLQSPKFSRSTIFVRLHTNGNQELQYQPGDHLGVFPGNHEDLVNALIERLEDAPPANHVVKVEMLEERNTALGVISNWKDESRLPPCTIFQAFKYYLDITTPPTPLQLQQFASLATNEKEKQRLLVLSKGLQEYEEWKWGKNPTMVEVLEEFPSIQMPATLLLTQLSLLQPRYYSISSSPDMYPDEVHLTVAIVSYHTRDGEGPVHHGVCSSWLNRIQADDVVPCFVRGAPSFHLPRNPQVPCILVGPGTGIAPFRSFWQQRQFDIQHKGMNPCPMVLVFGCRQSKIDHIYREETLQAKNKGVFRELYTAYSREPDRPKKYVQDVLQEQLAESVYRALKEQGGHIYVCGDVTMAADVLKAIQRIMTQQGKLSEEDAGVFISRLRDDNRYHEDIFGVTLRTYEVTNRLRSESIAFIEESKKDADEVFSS
Sequence of Nitric oxide synthase 3 (P29474 whole entry, looked up): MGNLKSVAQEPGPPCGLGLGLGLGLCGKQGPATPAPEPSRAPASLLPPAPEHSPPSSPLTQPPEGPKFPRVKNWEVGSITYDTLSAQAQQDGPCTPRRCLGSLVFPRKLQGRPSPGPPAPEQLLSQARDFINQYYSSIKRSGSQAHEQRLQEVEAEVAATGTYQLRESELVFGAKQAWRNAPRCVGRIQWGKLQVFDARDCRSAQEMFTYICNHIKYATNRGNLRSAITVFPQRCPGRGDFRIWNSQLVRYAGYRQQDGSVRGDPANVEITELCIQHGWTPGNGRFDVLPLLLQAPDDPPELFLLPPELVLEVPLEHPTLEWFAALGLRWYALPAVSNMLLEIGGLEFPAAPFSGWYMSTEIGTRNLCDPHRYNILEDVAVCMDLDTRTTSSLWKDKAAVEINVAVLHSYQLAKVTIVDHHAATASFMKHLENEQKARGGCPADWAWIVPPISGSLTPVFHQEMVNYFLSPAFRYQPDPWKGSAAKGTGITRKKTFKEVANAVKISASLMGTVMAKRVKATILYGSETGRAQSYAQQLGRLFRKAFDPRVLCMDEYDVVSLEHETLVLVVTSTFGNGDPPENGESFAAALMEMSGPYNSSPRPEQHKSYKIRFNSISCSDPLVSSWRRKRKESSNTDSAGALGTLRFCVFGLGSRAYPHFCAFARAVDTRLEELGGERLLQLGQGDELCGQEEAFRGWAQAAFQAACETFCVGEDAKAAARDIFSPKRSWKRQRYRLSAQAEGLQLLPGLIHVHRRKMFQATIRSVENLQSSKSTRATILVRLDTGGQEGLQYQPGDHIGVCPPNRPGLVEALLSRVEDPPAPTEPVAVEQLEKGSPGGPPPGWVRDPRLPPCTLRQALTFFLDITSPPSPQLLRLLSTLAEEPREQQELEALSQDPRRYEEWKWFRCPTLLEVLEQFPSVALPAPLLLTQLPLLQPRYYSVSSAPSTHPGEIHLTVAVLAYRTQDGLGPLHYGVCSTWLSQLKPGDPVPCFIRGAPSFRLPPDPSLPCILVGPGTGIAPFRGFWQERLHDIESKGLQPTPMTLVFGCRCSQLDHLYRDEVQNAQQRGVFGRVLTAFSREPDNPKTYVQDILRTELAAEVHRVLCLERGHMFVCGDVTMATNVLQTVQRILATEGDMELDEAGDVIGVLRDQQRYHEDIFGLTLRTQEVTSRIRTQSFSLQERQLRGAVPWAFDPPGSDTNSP

The term IC50 denotes the concentration that gives 50% inhibition. For the compound `N=C(Nc1cccc(C2(O)CCN(CCc3cccc(Cl)c3)CC2)c1)c1cccs1`, the IC50 stood at 0.131 µM at Nitric oxide synthase 1 and 57.5 µM against Nitric oxide synthase 3. Besides, the Ratio IC50 in data set [1] is 438. Besides, the metabolised at 20 min in data set [2] stood at 39%.

For `CCCCNC(=O)N1CCC(O)(c2cccc(NC(=N)c3cccs3)c2)CC1`, the figures for the half-maximal inhibitory concentration (IC50) on Nitric oxide synthase 1 and against Nitric oxide synthase 3 were 0.694 µM and 10 µM, respectively. Moreover, the Ratio IC50 in data set [1] is 14. Besides, the metabolised at 20 min in data set [2] is 54%.

`N=C(Nc1cccc(C2(O)CCN(C(=O)OCc3ccccc3)CC2)c1)c1cccs1`: the IC50 stood at 0.376 µM at Nitric oxide synthase 1 and 60.1 µM against Nitric oxide synthase 3. Moreover, in data set [1], the Ratio IC50 is 159. The metabolised at 20 min in data set [2] is 77%.

As to `N=C(Nc1cccc(C2(O)CCN(CCc3ccc(Cl)c(Cl)c3)CC2)c1)c1cccs1`, the concentration for half-maximal inhibition (IC50) stood at 0.017 µM at Nitric oxide synthase 1 and 28.3 µM against Nitric oxide synthase 3. Besides, the Ratio IC50 in data set [1] stood at 1660. Besides, in data set [2], the metabolised at 20 min stood at 32%.

`CCCS(=O)(=O)N1CCC(O)(c2cccc(NC(=N)c3cccs3)c2)CC1`: the figures for the concentration for half-maximal inhibition (IC50) at Nitric oxide synthase 1 and against Nitric oxide synthase 3 were 0.706 µM and 18.2 µM, respectively. The Ratio IC50 in data set [1] turned out to be 26. In data set [2], the metabolised at 20 min was 25%.

Consider `N=C(Nc1cccc(C2(O)CCN(CCc3cccc(Cl)c3Cl)CC2)c1)c1cccs1`, for which the IC50 on Nitric oxide synthase 1 amounted to 0.129 µM; against Nitric oxide synthase 3, 100 µM. Moreover, in data set [1], the Ratio IC50 came out at 775. Further, in data set [2], the metabolised at 20 min is 23%.

`CC(C)S(=O)(=O)N1CCC(O)(c2cccc(NC(=N)c3cccs3)c2)CC1`: the 50% inhibitory concentration (IC50) came to 0.551 µM at Nitric oxide synthase 1 and 23 µM against Nitric oxide synthase 3. Besides, the Ratio IC50 in data set [1] turned out to be 42. Moreover, the metabolised at 20 min in data set [2] came out at 16%.
